Assay results from patent US8354237B2, “Anti-methylation-controlled j protein antibodies and uses thereof” (University of Vermont and State Agriculture College, priority 2007, dated 2013).
Peptide text beside a SMILES is read from it. * marks the point of attachment. Cbz = O=C(OCc1ccccc1)*

Key:
Type in all cases: cell-based, human
MCF7/siMCJ-1B cells [1] = assay: Analysis of drug internalization (flow cytometry, confocal microscopy); conditions: for effect on intracellular accumulation of doxorubicin: verapamil 10 μM
Protocol: (§1) MCF7, MCF7/ADR, MCF7/siMCJ-1B and MCF7/siMCJ-3B cells were treated with doxorubicin (0.3 or 3 μM) for 3 h at 37° C. Negative controls had no drug added. Cells were washed 3 times with PBS and trypsinised and doxorubicin fluorescence was examined by flow cytometry using a LSRII flow cytometer (BD Biosciences, Mass.). FLP3, 695/40 nm filter with 685 nm long pass was used to measure doxorubicin fluorescence. For MCF7/siMCJ cells, EGFP was detected in FLP1, 530/30 nm band-pass with 505 nm long pass. No overlap of two fluorescences could be detected. Confocal microscopy: MCF7, MCF7/ADR, MCF7/siMCJ-1B and -3B (3×10^4) cells were seeded on BD Biocoat coverslips (BD Biosciences, Bedford, Mass.) and treated with doxorubicin in the presence or absence of veraparnil (10 μM). After different periods of time (0, 2, 3 h) cells were washed with PBS and fixed in 3.7% paraformaldehyde to be examined by confocal microscopy. Since both, EGFP (present in MCF7/siMCJ cells) and doxorubicin are excited by 488 nm, the conventional multi track type of analysis could not be used. Instead, the Lambda Mode analysis in the Zeiss confocal microscope (Zeiss LSM 510 META Confocal Laser Scanning Imaging System, Carl Ziess Microimaging Inc, Thronwood, N.Y.) was used that allows a precise analysis of the emission spectrum for each fluorochrome (Chen and Simon, J Cell Biol 148, 863-870, 2000). The cells were excited at 488 nm and emission peaks were readily separated by this methodology with EGFP emission at 500 nm and doxorubicin at 600 nm (FIG. 10).

MCF7 cells [2] = assay: as above
Protocol: as §1

c-Jun = c-Jun expression by Western blot in MCF7 cells treated with proteasome inhibitor; conditions: MG132 5 μM, 4 h
Protocol: Whole cell extracts were prepared in lysis buffer as previously described (Pedraza-Alva et al., J Biol Chem 276, 729-737, 2001). 40-100 μg of proteins were separated by electrophoresis and transferred on to a nitrocellulose membrane (Conze et al., Cancer Res 61, 8851-8858, 2001). Primary antibodies for Western blotting include anti-ABCB1 (JSB-1 clone) from (ALEXIS corporation Switzerland), rabbit polyclonal anti-MCJ, anti-HA, anti-c-Jun, from (Cell Signaling Technology, Inc) anti-actin and the secondary antibodies goat anti-mouse HRP, goat anti-rabbit HRP and donkey anti-goat HRP Ab from (Santa Cruz Biotechnology). LUMIGLO® chemiluminescent substrate system (KPL, Maryland) was used to visualize the proteins. Levels of actin were determined as loading control.
It was determined whether the increased c-Jun DNA binding in siMCJ cells could be due to an upregulation of c-Jun protein levels. The levels of c-Jun by Western blot analysis were examined using whole cell lysates. Very low levels of c-Jun were detected in MCF7 cells, but high levels were present in MCF7/siMCJ cells (FIG. 8D). It has been previously reported that c-Jun levels can be regulated by ubiquitination and proteasome mediated degradation (Treier et al., Cell 78, 787-798, 1994). […]

MCJ = MCJ mRNA expression by RT-PCR in MCF7 cells cultured with IL-6; conditions: IL-6 50 ng/ml, 8 days (one week), RT-PCR and real-time RT-PCR
From the text: Total RNA was isolated using ULTRASPEC® RNA isolation systems, as recommended by the manufacturer (Biotecx Laboratories, Inc, Houston, Tex.). The first strand cDNA was obtained by reverse transcription as described previously (Conze et al., Cancer Res 61, 8851-8858, 2001). cDNA was used to detect human […], HPRT, MCJ, ABCG2 and ABCC1 expression by conventional PCR or real-time RT-PCR. Previously described primers were used for the conventional RT-PCR amplification of ABCB1 (Noonan et al., Proc Natl Acad Sci USA 87, 7160-7164, 1990), HPRT (Conze et al., Cancer Res 61, 8851-8858, 2001), ABCC1 (Harbottle et al., Int J Cancer 92, 777-783, 2001), ABCG2 (Doyle and Ross, Oncogene 22, 7340-7358, 2003) and MCJ (Shridhar et al., Cancer Res 61, 4258-4265, 2001). For the real-time RT-PCR analysis, by TAQMAN® system (Applied Biosystems), an Assay on Demand Kit for human HPRT and ABCB1 (Sigma, Genosys) was used. For the detection of MCJ by real time RT-PCR, we used the following probe and primer set were used (Sigma, Genosys) (probe 5′-[…]-3; (SEQ ID NO:22) sense primer 5′-CAGAAAATGA GTAGGCGAGAAGC-3′ (SEQ ID NO:23) and anti-sense primer 5′-[…]-3′ (SEQ ID NO:24). HPRT was used as an endogenous control to normalize the mRNA values in each sample. The relative values were determined by the comparative CT analysis method. […]

MCF7/siMCJ-3B cells [3] = assay: Analysis of drug internalization (flow cytometry, confocal microscopy); conditions: 3 h; for intracellular accumulation of doxorubicin: flow cytometry
Protocol: as §1

MCF7/ADR cells [4] = assay: as above; conditions: 0.3 and 3 μM, 3 h
Protocol: as §1

MCF7/siMCJ-3B cells [5] = assay: Cell viability assay (MTT assay)
Protocol: (§2) MCF7 and MCF7/ADR cells were a kind gift from Dr. Ken Cowan (National Cancer Institute, Bethesda, Md.). MCF7, MCF7/ADR, MCF7/siMCJ-1B MCF7/siMCJ-3B, […], MD22, MES-SA and MES-Dx5 cells were maintained in RPMI-1640 (Life technologies, Inc., Gaithersburg, Md.) containing 5% FBS (Hyclone, Logan, Utah), Penicillin/streptomycin and 1-glutamine (Gibco). 293T cells were cultured in DMEM-F12 medium (Life technologies, Inc.) supplemented with 10% FBS (Hyclone, Logan, Utah).
(§3) The dose response of cell line to different drugs was determined by MTT assay as described previously (Conze et al., Cancer Res 61, 8851-8858, 2001; Sladowski et al., J Immunol Methods 157, 203-207, 1993). Different concentrations of drug were used, ranging from 0-100 μM for Doxorubicin, 0-30 μM for Paclitaxel and 0-30 μM for 5-Flurouracil. LD50 values were calculated by non-linear regression and plotted graphically as percentage of viable cells.

MCF7/siMCJ-1B cells [6] = assay: Cell viability assay (MTT assay)
Protocol: as §2, §3

MCF7 cells [7] = assay: Cell viability assay (MTT assay); conditions: for response of cells to drug (percent viability, MTT assay): MCF7 cells
Protocol: as §2, §3

MCF7/ADR cells [8] = assay: Cell viability assay (MTT assay)
Protocol: as §2, §3

Compound: COc1ccc(CCN(C)CCCC(C#N)(c2ccc(OC)c(OC)c2)C(C)C)cc1OC (stereo not shown) [verapamil]
- effect on intracellular accumulation of doxorubicin (MCF7/siMCJ-1B cells [1]; confocal microscopy, doxorubicin 3 h): clear intracellular accumulation was observed
- effect on intracellular accumulation of doxorubicin (MCF7/siMCJ-1B cells [1]; flow cytometry, doxorubicin 3 μM, 3 h): allowed the intracellular accumulation of doxorubicin
- effect on intracellular accumulation of doxorubicin (MCF7 cells [2]; flow cytometry, verapamil 10 μM, doxorubicin 3 μM, 3 h): no effect

Compound: CC(C)C[C@@H](C=O)NC(=O)[C@H](CC(C)C)NC(=O)[C@H](CC(C)C)NC(=O)OCc1ccccc1 [MG132] (Cbz-Leu-Leu-Leu-aldehyde)
- c-Jun levels compared with untreated MCF7 cells (c-Jun): Increased levels

Compound: IL-6: exogenous IL-6 added to MCF7 cell culture
- MCJ mRNA levels compared with untreated MCF7 cells (MCJ): reduced levels

Compound: COc1cccc2c1C(=O)c1c(O)c3c(c(O)c1C2=O)C[C@@](O)(C(=O)CO)C[C@@H]3O[C@H]1C[C@H](N)[C@H](O)[C@H](C)O1 [doxorubicin]
- doxorubicin fluorescence (intracellular accumulation) (MCF7/siMCJ-3B cells [3]; confocal microscopy): no doxorubicin fluorescence was observed
- intracellular accumulation of doxorubicin (MCF7/siMCJ-3B cells [3]; 0.3 μM): no intracellular accumulation
- intracellular accumulation of doxorubicin (MCF7/siMCJ-3B cells [3]; 3 μM): very low intracellular levels
- doxorubicin fluorescence (intracellular accumulation) (MCF7/siMCJ-1B cells [1]; confocal microscopy, 3 h): no doxorubicin fluorescence was observed
- intracellular accumulation of doxorubicin (MCF7/siMCJ-1B cells [1]; flow cytometry, 0.3 μM, 3 h): no intracellular accumulation
- intracellular accumulation of doxorubicin (MCF7/siMCJ-1B cells [1]; flow cytometry, 3 μM, 3 h): very low intracellular levels
- doxorubicin fluorescence (intracellular accumulation) (MCF7 cells [2]; confocal microscopy, 1, 2 or 3 h): maximum level of intracellular accumulation was reached after 3 h
- intracellular accumulation of doxorubicin (MCF7 cells [2]; flow cytometry, 0.3 and 3 μM, 3 h): High levels
- intracellular accumulation of doxorubicin (MCF7/ADR cells [4]): no doxorubicin was observed
- response of cells to drug (percent viability, MTT assay) (MCF7/siMCJ-3B cells [5]): significantly more resistant
- response of cells to drug (percent viability, MTT assay) (MCF7/siMCJ-1B cells [6]): significantly more resistant
- response of cells to drug (percent viability, MTT assay) (MCF7 cells [7]): highly sensitive
- response of cells to drug (percent viability, MTT assay) (MCF7/ADR cells [8]): highly resistant

Compound: CC(=O)O[C@H]1C(=O)[C@@]2(C)[C@H]([C@H](OC(=O)c3ccccc3)[C@]3(O)C[C@H](OC(=O)[C@H](O)[C@@H](NC(=O)c4ccccc4)c4ccccc4)C(C)=C1C3(C)C)[C@]1(OC(C)=O)CO[C@@H]1C[C@@H]2O [paclitaxel]
- response of cells to drug (percent viability, MTT assay) (MCF7/siMCJ-3B cells [5]): highly resistant
- response of cells to drug (percent viability, MTT assay) (MCF7/siMCJ-1B cells [6]): highly resistant
- response of cells to drug (percent viability, MTT assay) (MCF7 cells [7]): highly sensitive

Compound: O=c1[nH]cc(F)c(=O)[nH]1 [5-FU, 5-fluorouracil]
- dose-response compared between cell lines (MTT assay) (MCF7 cells [7]; MCF7, MCF7/ADR, MCF7/siMCJ-1B and -3B cells): comparable
